Six compounds from US20240409585A1, “MACROCYCLIC IMMUNOMODULATORS” (priority 2021, published 2024) can be followed below.

Bridge positions count the residues as written; N and C are the ends. Square brackets hold non-standard residues; d marks the D form. Peptide text beside a SMILES is read from it. * marks the point of attachment. Phe(3-CF3) = N[C@@H](Cc1cccc(C(F)(F)F)c1)C(=O)O; Phe(4-COOH) = N[C@@H](Cc1ccc(C(=O)O)cc1)C(=O)O; Bip = N[C@@H](Cc1ccc(-c2ccccc2)cc1)C(=O)O; Phe(3-Me) = Cc1cccc(C[C@H](N)C(=O)O)c1; aThr = C[C@H](O)[C@H](N)C(=O)O; Carboxymethyl = O=C(O)C*; NMeA = CN[C@@H](C)C(=O)O; Nle = CCCC[C@H](N)C(=O)O; Orn = NCCC[C@H](N)C(=O)O; Dab = NCC[C@H](N)C(=O)O

The target of this assay is T1, PE-labeled human PD-L1-Ig binding to Jurkat cell line over-expressing human PD-1 (Jurkat-PD-1) (Homo sapiens, UniProt Q15116).
T1 construct: expressed in transfected cells; host or cells: Jurkat
T1 sequence (Q15116 25-288): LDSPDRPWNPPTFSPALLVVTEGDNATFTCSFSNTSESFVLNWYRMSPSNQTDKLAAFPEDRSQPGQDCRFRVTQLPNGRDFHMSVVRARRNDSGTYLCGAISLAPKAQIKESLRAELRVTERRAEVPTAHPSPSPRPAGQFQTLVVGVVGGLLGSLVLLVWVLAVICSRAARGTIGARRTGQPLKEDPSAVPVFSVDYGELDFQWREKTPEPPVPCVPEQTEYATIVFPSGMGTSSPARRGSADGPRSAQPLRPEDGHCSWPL
Kind of assay: Jurkat-PD-1 Cell Binding High-Content Screening Assay (CBA): Method 1. The settings on record: Jurkat-hPD-1 cells, PE-labeled PD-L1-Ig 20 nM final; read-out: Jurkat HPDL1 PD1 IC50 (uM) (Method 1).
Usually IC50 stands for the concentration at which inhibition is half-maximal. Consider `CC(C)C[C@@H]1NC(=O)[C@H](Cc2c[nH]c3ccccc23)NC(=O)[C@H](CC(=O)O)NC(=O)[C@H](Cc2ccc(O)cc2)NC(=O)[C@H](Cc2ccccc2)NC(=O)CSC[C@@H](C(=O)N[C@@H](C)C(N)=O)NC(=O)[C@H](CO)NC(=O)[C@H](C(C)C)NC(=O)[C@H](CC(C)C)NC(=O)[C@H](CCCNC(=N)N)NC(=O)[C@@H](CC(C)C)NC(=O)[C@H](C)N(C)C(=O)[C@H](CCCNC(=N)N)NC(=O)[C@H](Cc2ccc(-c3ccccc3)cc2)NC1=O` [Compound 1780] ({CH2CO}-FYDWL[Bip]R[NMeA][dL]RLVSCA-NH2; thioether N-14), for which the IC50 is 0.08 µM. Take `CC(C)C[C@@H]1NC(=O)[C@H](Cc2c[nH]c3ccccc23)NC(=O)[C@H](CC(=O)O)NC(=O)[C@H](Cc2cccc(C(F)(F)F)c2)NC(=O)[C@H](Cc2ccccc2)NC(=O)CSC[C@@H](C(=O)N[C@@H](C)C(N)=O)NC(=O)[C@H](CO)NC(=O)[C@H](C(C)C)NC(=O)[C@H](CC(C)C)NC(=O)[C@H](CC(N)=O)NC(=O)[C@@H](C)NC(=O)[C@H](C)N(C)C(=O)[C@H](C(C)C)NC(=O)[C@H](Cc2ccc(-c3ccccc3)cc2)NC1=O` [Compound 1777] ({CH2CO}-F[Phe(3-CF3)]DWL[Bip]V[NMeA][dA]NLVSCA-NH2; thioether N-14): the IC50 stood at 0.06 µM. Consider `CCCC[C@@H]1NC(=O)[C@H](CCCNC(=N)N)NC(=O)[C@@H](CC(C)C)NC(=O)[C@H](C)N(C)C(=O)[C@H](CCCNC(=N)N)NC(=O)[C@H](Cc2ccc(-c3ccccc3)cc2)NC(=O)[C@H](C(C)C)NC(=O)[C@H](Cc2c[nH]c3ccccc23)NC(=O)[C@H](CC(=O)O)NC(=O)[C@H](Cc2ccc(O)cc2)NC(=O)[C@H](CC(N)=O)NC(=O)CSC[C@@H](C(=O)N[C@@H](C)C(N)=O)NC(=O)[C@H]([C@@H](C)O)NC(=O)[C@H](C(C)C)NC1=O` [Compound 1282] ({CH2CO}-NYDWV[Bip]R[NMeA][dL]R[Nle]VTCA-NH2; thioether N-14), for which the IC50 came to 0.13 µM.

On to `Cc1cccc(C[C@@H]2NC(=O)[C@H](CC(=O)O)NC(=O)[C@H](Cc3ccc(OCC(=O)O)cc3)NC(=O)[C@H](Cc3ccc(OCC(=O)O)cc3)NC(=O)CSC[C@@H](C(=O)N[C@@H](C)C(N)=O)NC(=O)[C@H]([C@H](C)O)NC(=O)[C@H](C(C)C)NC(=O)[C@H](CC(C)C)NC(=O)[C@H](CCN)NC(=O)[C@@H](CC(C)C)NC(=O)[C@H](C)N(C)C(=O)[C@H](C(C)C)NC(=O)[C@H](Cc3ccc(-c4ccccc4)cc3)NC(=O)[C@H](C(C)C)NC2=O)c1` [Compound 1578] ({CH2CO}-Y(Carboxymethyl)Y(Carboxymethyl)D[Phe(3-Me)]V[Bip]V[NMeA][dL][Dab]LV[aThr]CA-NH2; thioether N-14), for which the concentration for half-maximal inhibition (IC50) came out at 0.01 µM. Next, `CC(C)C[C@@H]1NC(=O)[C@H](Cc2c[nH]c3ccccc23)NC(=O)[C@H](CC(=O)O)NC(=O)[C@H](Cc2ccc(O)cc2)NC(=O)[C@H](Cc2ccccc2)NC(=O)CSC[C@@H](C(=O)N[C@@H](C)C(N)=O)NC(=O)[C@H](CO)NC(=O)[C@H](CCN)NC(=O)[C@H](CC(C)C)NC(=O)[C@H](CC(N)=O)NC(=O)[C@@H](C)NC(=O)[C@H](C)N(C)C(=O)[C@H](C(C)C)NC(=O)[C@H](Cc2ccc(-c3ccccc3)cc2)NC1=O` [Compound 1531] ({CH2CO}-FYDWL[Bip]V[NMeA][dA]NL[Dab]SCA-NH2; thioether N-14): 0.11 µM. Next, `CC(C)C[C@@H]1NC(=O)[C@H](CCCN)NC(=O)[C@@H](CC(C)C)NC(=O)[C@H](C)N(C)C(=O)[C@H](CCCNC(=N)N)NC(=O)[C@H](Cc2ccc(-c3ccccc3)cc2)NC(=O)[C@H](C(C)C)NC(=O)[C@H](Cc2c[nH]c3ccccc23)NC(=O)[C@H](CC(=O)O)NC(=O)[C@H](Cc2ccc(C(=O)O)cc2)NC(=O)[C@H](Cc2cnc[nH]2)NC(=O)CSC[C@@H](C(=O)N[C@@H](C)C(N)=O)NC(=O)[C@H]([C@@H](C)O)NC(=O)[C@H](C(C)C)NC1=O` [Compound 1149] ({CH2CO}-H[Phe(4-COOH)]DWV[Bip]R[NMeA][dL][Orn]LVTCA-NH2; thioether N-14): 0.07 µM.
